# Biological target: T1, IGF-1R (Homo sapiens, UniProt P08069)
# T1 construct: expressed in transfected cells
# Assay: Example B-1: IGF-1R Assay (PC3 cells stimulated with IGF1, AlphaLISA on cell lysates)
# Assay type: cell-based
# Details: compound two hours, IGF1 200 ng/mL for 30 min, read-out: IC50, Biological Activity against IGF-1R (Table B1)
# Description: 50K PC3 cells were seeded on day 1 in 50 μL of media in 96-well plate and incubated overnight at 37° C., 5% CO2. On day 2, all cells were expected to be at 80-90% confluency. Cells were starved for two hours by changing the media to 90 μL of EMEM serum-free media and incubated for 2 hours. Next, cells were treated with 10 μL of 10× concentrated and 3× serially diluted compounds for two hours. It makes 1× of compounds in 100 μL media. This was followed by stimulation of cells with 11×IGF1 for 30 min in 10 μL of serum-free EMEM media at the final concentration of 200 ng/mL.
# The media was removed and replaced by 50 μL of 1× lysis buffer from the AlphaLISA kit (with 1× of cOmplete™ protease inhibitor). The plates were sealed, and cells were allowed to lyse for 10 min in the shaker before storing the plate at −20° C. until used. The AlphaLISA assay with processed cell lysates were performed as described in the protocol. Briefly, 10 μL of the undiluted sample were loaded to 384 well Optiplates and 5 μL of the acceptor mix (as described in the AlphaLISA kit) was added to each well. The plates were sealed and briefly vortexed followed by the incubation at RT for 3 hours. In the dark, 5 μL of donor mix was added to each well. All plates were sealed and stored at RT overnight. The plates were read in EnVision reader using standard AlphaLISA settings.
# Compound activity was analyzed using CBIS data analysis suite (Cheminnovation, CA). Percentage inhibition was calculated using the following formula: % I-hibition=100%×(1−(mea−RLU of test sample−mean RLU of vehicle control)/(mean-RLU of EC80 control−mean RLU of vehicle control)). The activity for representative examples of the invention is shown in the following table, wherein A: IC50≤500 nM; B: 500 nM<IC50≤2 μM; C: 2 μM<IC50≤10 μM; D: IC50>10 μM.
# T1 sequence (P08069 31-1367): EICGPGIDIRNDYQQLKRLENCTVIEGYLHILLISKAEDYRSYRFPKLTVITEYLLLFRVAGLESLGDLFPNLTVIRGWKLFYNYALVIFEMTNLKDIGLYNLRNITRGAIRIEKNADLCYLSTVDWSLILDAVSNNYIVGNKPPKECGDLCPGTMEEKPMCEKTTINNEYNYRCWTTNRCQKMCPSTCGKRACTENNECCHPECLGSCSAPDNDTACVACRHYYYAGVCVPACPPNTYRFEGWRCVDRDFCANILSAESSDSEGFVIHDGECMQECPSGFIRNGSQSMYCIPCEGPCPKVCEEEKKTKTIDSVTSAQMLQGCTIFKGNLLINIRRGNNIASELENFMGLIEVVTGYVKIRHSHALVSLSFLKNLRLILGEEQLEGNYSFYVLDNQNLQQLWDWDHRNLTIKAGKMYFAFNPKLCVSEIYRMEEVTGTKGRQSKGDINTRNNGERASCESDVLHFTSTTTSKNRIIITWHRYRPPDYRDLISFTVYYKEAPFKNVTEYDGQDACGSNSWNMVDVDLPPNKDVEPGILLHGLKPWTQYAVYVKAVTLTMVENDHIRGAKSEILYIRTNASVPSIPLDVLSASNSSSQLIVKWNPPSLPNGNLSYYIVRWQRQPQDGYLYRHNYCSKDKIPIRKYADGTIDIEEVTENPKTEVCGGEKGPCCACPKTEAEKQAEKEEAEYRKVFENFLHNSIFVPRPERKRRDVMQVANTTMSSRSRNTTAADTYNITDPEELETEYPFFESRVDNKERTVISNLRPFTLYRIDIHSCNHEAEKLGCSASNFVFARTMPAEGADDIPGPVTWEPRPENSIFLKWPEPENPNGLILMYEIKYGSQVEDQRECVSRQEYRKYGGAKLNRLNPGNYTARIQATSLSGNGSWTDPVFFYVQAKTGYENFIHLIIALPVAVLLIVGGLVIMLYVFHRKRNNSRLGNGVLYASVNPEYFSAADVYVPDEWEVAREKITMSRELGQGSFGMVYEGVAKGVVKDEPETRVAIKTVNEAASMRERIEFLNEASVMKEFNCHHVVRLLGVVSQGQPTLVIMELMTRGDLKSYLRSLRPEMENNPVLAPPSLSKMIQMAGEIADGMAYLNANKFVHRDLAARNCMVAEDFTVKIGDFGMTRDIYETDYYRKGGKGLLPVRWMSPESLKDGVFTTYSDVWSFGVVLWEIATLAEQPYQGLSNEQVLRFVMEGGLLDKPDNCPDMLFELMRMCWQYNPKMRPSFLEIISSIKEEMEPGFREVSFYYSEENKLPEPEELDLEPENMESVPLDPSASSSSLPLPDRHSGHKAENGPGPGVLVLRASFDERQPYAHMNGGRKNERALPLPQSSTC
row,Compound,IC50 [nM]
1,"CC1(C)C(=O)N(c2ccc(SC(F)(F)F)cc2)C(=O)N1Cc1ccnc(N)c1F [Compound 380, 1-((2-amino-3-fluoropyridin-4-yl)methyl)-5,5-dimethyl-3-(4-((trifluoromethyl)thio)phenyl) imidazolidine-2,4-dione]",≤ 500
2,"CC(C)Nc1cc(CN2C(=O)N(c3ccc(C4CC(F)(F)C4)cc3)C(=O)C2(C)C)ccn1 [Compound 102, 3-(4-(3,3-difluorocyclobutyl)phenyl)-1-((2-(isopropylamino)pyridin-4-yl)methyl)-5,5-dimethylimidazolidine-2,4-dione]",500 to 2000
3,"CC(C)Nc1cc(CN2C(=O)N(c3ccc(C45CC(C)(C4)C5)cc3)C(=O)C2(C)C)ccn1 [Compound 112, 1-((2-(isopropylamino)pyridin-4-yl)methyl)-5,5-dimethyl-3-(4-(3-methylbicyclo[1.1.1]pentan-1-yl)phenyl)imidazolidine-2,4-dione]",2000 to 10000
4,"CC1(C)C(=O)N(c2ccc(SC(F)(F)F)cc2)C(=O)N1Cc1ccnc2[nH]cnc12 [Compound 2, 1-((3H-imidazo[4,5-b]pyridin-7-yl)methyl)-5,5-dimethyl-3-(4-((trifluoromethyl)thio)phenyl)imidazolidine-2,4-dione]",≤ 500
5,"CC1(C)C(=O)N(c2ccc(SC(F)(F)F)cc2)C(=O)N1Cc1ccnc(NC(=O)NC2CCOCC2)c1 [Compound 306, 1-(4-((5,5-dimethyl-2,4-dioxo-3-(4-((trifluoromethyl)thio)phenyl)imidazolidin-1-yl)methyl)pyridin-2-yl)-3-(tetrahydro-2H-pyran-4-yl)urea]",≤ 500
6,"Cn1cc(CNc2cc(CN3C(=O)N(c4ccc(SC(F)(F)F)cc4)C(=O)C3(C)C)ccn2)cn1 [Compound 301, 5,5-dimethyl-1-((2-(((1-methyl-1H-pyrazol-4-yl)methyl)amino)pyridin-4-yl)methyl)-3-(4-((trifluoromethyl)thio)phenyl)imidazolidine-2,4-dione]",≤ 500
7,"CC(C)(C)c1ccc(N2C(=O)N(Cc3ccnc(NC45CC(C4)C5)c3)C(C)(C)C2=O)cc1 [Compound 276, 1-((2-(bicyclo[1.1.1]pentan-1-ylamino)pyridin-4-yl)methyl)-3-(4-(tert-butyl)phenyl)-5,5-dimethylimidazolidine-2,4-dione]",≤ 500
8,"Nc1cc(CN2C(=O)N(c3ccc(SC(F)(F)F)cc3)C(=O)[C@@H]2Cc2ccccc2)ccn1 [Compound 289, (S)-1-((2-aminopyridin-4-yl)methyl)-5-benzyl-3-(4-((trifluoromethyl)thio)phenyl)imidazolidine-2,4-dione]",500 to 2000
9,"CN(C)C(=O)c1cncc(Nc2cc(CN3C(=O)N(c4ccc(SC(F)(F)F)cc4)C(=O)C3(C)C)ccn2)c1 [Compound 359, 5-((4-((5,5-dimethyl-2,4-dioxo-3-(4-((trifluoromethyl)thio)phenyl)imidazolidin-1-yl)methyl)pyridin-2-yl)amino)-N,N-dimethylnicotinamide]",≤ 500
10,"CN(C)CC(=O)Nc1cc(CN2C(=O)N(c3ccc(SC(F)(F)F)cc3)C(=O)C2(C)C)ccn1 [Compound 348, N-(4-((5,5-dimethyl-2,4-dioxo-3-(4-((trifluoromethyl)thio)phenyl)imidazolidin-1-yl)methyl)pyridin-2-yl)-2-(dimethylamino)acetamide]",≤ 500
11,"CC(C)Nc1cc(CN2C(=O)N(c3ccc(SC(F)(F)F)cc3)C(=O)C2(C)C)cnn1 [Compound 386, 1-((6-(isopropylamino)pyridazin-4-yl)methyl)-5,5-dimethyl-3-(4-((trifluoromethyl)thio)phenyl) imidazolidine-2,4-dione]",2000 to 10000
12,"CC(C)[C@H]1C(=O)N(c2ccc(SC(F)(F)F)cc2)C(=O)N1Cc1ccnc(N)c1 [Compound 290, (S)-1-((2-aminopyridin-4-yl)methyl)-5-isopropyl-3-(4-((trifluoromethyl)thio)phenyl)imidazolidine-2,4-dione]",> 10000

# Reference: US20250145585A1, “HETEROCYCLIC INHIBITORS OF IGF-1R FOR TREATMENT OF DISEASE” (HORIZON THERAPEUTICS IRELAND DAC, priority 2023, published 2025)
